Where “and” joins values, the source holds several entries; their conditions need not be identical. Equal entries are not always repeated. Entries after “also recorded” stand apart in the source; their conditions may differ. Where two headings read alike, the source gives them in different places.

The IC50 is the point on the concentration scale where inhibition reaches its midpoint.

One data set has as its system Kidney CRL-1611. In words: CellTiter Glo cell viability assay. The format is cell-based. To be noted: Homo sapiens, 72 h. On the procedure:
(§1) 1.7*10^3 cells/well were seeded in quadruplicates in 96-well plate after plating. Drugs were added at 5 μM and 2-fold dilutions over 18 concentrations (0.000038146-5 […] range) to generate a dose-response curve. Cell growth was assessed on day 1, 3 and 5 after drug treatments using the CellTiter Glo Luminescence Cell Viability Assay (Promega) according to manufacturer's protocol. Thermo Scientific Varioskan LUX Multimode Microplate instrument was used for plate reading. Data are expressed as mean luminescence (arbitrary units) ±S.D.
(§2) Cell Viability Assays were employed to determine the concentration of Compound 1 (KYN-001) and analogues where the response is reduced by half. For each treatment of cancer cells, 1, 2, 5, 10 and 20 μM solutions of compounds were applied. GraphPad Prism 7 software was used to fit dose response curves. Relative Luminescence Units were plotted against the log values of the doses used and the nonlinear regression model was used for data analysis.
(§3) The protocol for cell proliferation was optimized for Compound 8 (KYN-119) to enable a more accurate assessment of its low IC50 value. In this protocol, 18 dosages (2 fold dilutions ranging from 0.000038146 to 5 μM) were applied to cells seeded in 96-well plates, and Luminescence was measured after 1, 3 and 5 days upon treatments.

The subject of another data set is Bladder HT_1376. Nature of the data set: CellTiter Glo cell viability assay. The format is cell-based. The settings on record: Homo sapiens, HT-1376, 72 h; 3 Days of treatment; 18 2-fold dilutions 5-0.00003 μM. Here is the method:
as §1, §2, §3
For orientation: In ATP-based viability assays light output follows the ATP content of the culture.

The test system of the next data set is Pancreatic AsPC-1n. In words: CellTiter Glo cell viability assay. The format is cell-based. To be noted: Homo sapiens, 72 h; 3 Days of treatment; 18 2-fold dilutions 5-0.00003 μM. On the procedure:
as §1, §2, §3

For another data set, the system named is Liver JHH-5. In words: CellTiter Glo cell viability assay. The format is cell-based. The settings on record: Homo sapiens, 72 h; 3 Days of treatment; 18 2-fold dilutions 5-0.00003 μM. Here is the method: as §1, §2, §3
A further data set concerns Rhabomyosarcoma SJCRH30. Nature of the data set: CellTiter Glo cell viability assay. The format is cell-based, human. Put shortly:
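Cells seeded at 1.7*10^3/well in quadruplicate; compounds at 18 two-fold dilutions from 5 μM (0.000038146-5 μM), or at 1, 2, 5, 10 and 20 μM. CellTiter Glo luminescence read on days 1, 3 and 5 after treatment. IC50 by nonlinear regression of luminescence versus log dose.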

The nature of data set [1]: Concentration of compound 27 in tissues (LC/MS/MS) of B16F10 xenografted mice. The format is in vivo. On the procedure: • Observe and assess the effect of oral administration of 27 on animal wellbeing. • Quantify levels of 27 in tissues (plasma, tumor, liver, spleen and brain) to assess the compound bioaccumulation and distribution.
(§4) B16F10 cells (25×10^5 cells/mouse) were injected subcutaneously into the right flank of female BALB/c mice aged 7-8 weeks. Mice (n=10) were divided into 2 groups and given daily oral suspension of 27 (treated group), or vehicle (control group) for 15 days. The treated group was orally given a suspension of 27 at 900 mg/kg. The control group was given the vehicle suspension (SEDDS). Measurements performed on days 0, 9 and 15 only. Tissues (plasma, tumor, liver, spleen and brain) were harvested within 3 hours of final treatment. Biopsies of tumor tissues for histopathology were obtained subsequently.
Concentrations of 27 in different tissues were determined using LC/MS/MS spectrometry.

For data set [2], the system named is melanoma B16F10 xenografted in BALB/c mice. Nature of the data set: B16F10 xenografted mice: tumor volume and histopathology. The format is in vivo. Here is the method:
as §4
Tissue samples from the tumors of both treated and control mice were fixed with formalin. Histopathological examination of these tumor samples was performed by Lore Laboratory, CA, USA.

For another data set, the system named is BalbC mice. Nature of the data set: Maximum Tolerable Dose - LD/50 single dose oral administration. To be noted: single oral dose 2000 mg/kg in SEDDS vehicle, 5 BalbC mice, observation 5 days. In kind it is in vivo. Here is the method: To ascertain initial information regarding the toxicity and tolerability of compound 27.
• A single administration of orally formulated maximum dose, 2000 mg/kg was given to 5 BalbC mice. Observation was carried out for 5 days.
• Compound 27 was weighed out and diluted into the same SEDDS vehicle used for S1. The SEDDS vehicle is composed of the following components: • Labrasol (30%) • PEG-400 (20%) • Kolliphore RH-40 (30%) • Labrafil (20%) • The concentration of 27 in SEDDS was 200 mg/mL which would translate to a 2000 mg/kg oral dose for a 20 g mouse administered 200 ul. Oral administration was administered to 5 mice and the animals were carefully observed for signs of toxicity in the first hour then sporadically over 5 days.

Where [3] appears, read: individual treated mice, 900 mg/kg oral daily for 15 days in SEDDS, harvested within 3 hours of final treatment, LC/MS/MS, 900 mg/kg.
The mark [4] stands for this setting: 900 mg/kg oral daily, individual treated mice.

With `COc1cc(/C=C/c2cc(O)cc(OC)c2CC=C(C)C)ccc1O` [Compound 1, (E)-3-(4-hydroxy-3-methoxystyryl)-5-methoxy-4-(3-methylbut-2-en-1-yl)phenol], the IC50 in the data set with Kidney CRL-1611 (3 Days of treatment, 18 2-fold dilutions 5-0.00003 μM, read-out: Average IC50) is 93.7 nM; in the data set with Kidney CRL-1611 (Day 3 upon drug treatment, 10 dosages 0.0001-20 μM, read-out: IC50) it was 93.7 nM.
As to `CCOc1cc(O)cc(/C=C/c2ccc(O)c(OC)c2)c1CC=C(C)C` [Compound 8, (E)-3-Ethoxy-5-(4-hydroxy-3-methoxystyryl)-4-(3-methylbut-2-en-1-yl)phenol], the IC50 amounted to 610 nM in the data set with Bladder HT_1376; 2000 nM with Pancreatic AsPC-1n; 4370 nM in the data set with Liver JHH-5; 43.4 nM in the data set with Rhabomyosarcoma SJCRH30 (Homo sapiens, 72 h, 3 Days of treatment, 18 2-fold dilutions 5-0.00003 μM). The “Fold IC50” value in the data set on Rhabomyosarcoma SJCRH30 (IC50 of 1 [KYN-001] vs 8 [KYN-119], 3 Days) came to 1.9.
For `COc1cc(/C=C/c2cc(O)cc(OC)c2CC=C(C)C)ccc1NC=O` [Compound 27, (E)-N-(4-(5-hydroxy-3-methoxy-2-(3-methylbut-2-en-1-yl)styryl)-2-methoxyphenyl)formamide], the “Tissue distribution, in words” value in data set [1] (900 mg/kg oral daily for 15 days, tissues harvested within 3 hours of final treatment) was “Low plasma level; also recorded: high tendency to accumulate in the brain”. Also, in data set [1] (setting [3]), the “Concentration of compound 27 in tissues: Liver” value was 12.6 μg/mg and 10.2 μg/mg and 1.0 μg/mg and 0.0 μg/mg (2×); the “Concentration of compound 27 in tissues: Plasma” value is 0.0 ng/mL (3×) and 8.4 ng/mL and 0.4 ng/mL; the “Concentration of compound 27 in tissues: Spleen” value is 2 μg/mg and 0 μg/mg (4×); the “Concentration of compound 27 in tissues: Tumor” value is 0 μg/mg (3×) and 11.6 μg/mg. The “Histochemical analysis of tumor samples, in words” value in data set [2] (900 mg/kg oral daily for 15 days) is “tumors were subsequently diminished after day 10; also recorded: lysed and/or underwent necrosis”. For the same compound, in data set [2] (setting [4]), the “Tumor volume Day 0” value is 109.29 mm^3 and 52.18 mm^3 and 58.45 mm^3 and 82.97 mm^3 and 66.82 mm^3; the “Tumor volume Day 9” value was 132.59 mm^3 and 178.68 mm^3 and 37.38 mm^3 and 60.93 mm^3 and 47.3 mm^3; the “Tumor volume Day 15” value is 5.31 mm^3 and 19.93 mm^3 and 35.03 mm^3 and 42.35 mm^3 and 39.44 mm^3. In addition, the “Toxicity and tolerability, survival and signs of distress” value with BalbC mice was “All five mice survived and showed no immediate signs of distress; also recorded: high degree of oral tolerability”.

(Values after patent US20260209152A1, “Substituted Hydroxystilbene Compounds and Derivatives, Synthesis and Uses Thereof” (Kynan Duke IP, LLC, priority 2019, published 2026).)
